Series [1] deals with T1, Tyrosinase (Mus musculus) (UniProt P11344).
T1 sequence (whole entry): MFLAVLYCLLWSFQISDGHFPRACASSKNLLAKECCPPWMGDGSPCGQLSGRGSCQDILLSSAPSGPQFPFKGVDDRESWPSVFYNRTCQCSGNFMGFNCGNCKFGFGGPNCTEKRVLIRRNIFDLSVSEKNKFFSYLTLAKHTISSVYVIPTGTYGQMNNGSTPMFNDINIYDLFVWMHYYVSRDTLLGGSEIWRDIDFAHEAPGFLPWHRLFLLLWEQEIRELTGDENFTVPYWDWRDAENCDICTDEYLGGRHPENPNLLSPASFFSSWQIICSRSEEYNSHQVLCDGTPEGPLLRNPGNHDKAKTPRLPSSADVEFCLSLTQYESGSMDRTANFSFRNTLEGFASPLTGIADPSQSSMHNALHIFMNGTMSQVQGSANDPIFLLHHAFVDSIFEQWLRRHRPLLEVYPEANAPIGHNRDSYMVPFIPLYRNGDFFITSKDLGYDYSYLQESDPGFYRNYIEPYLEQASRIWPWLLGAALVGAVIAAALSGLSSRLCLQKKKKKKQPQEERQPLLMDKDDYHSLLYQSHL
Nature of the series: Inhibition of tyrosinase in alpha-MSH-induced mouse B16 cells at 5 uM. The series is classed as cell-based.

In series [2] the test system is B16. Nature of the series: cells. The settings on record: Mus musculus, B16, 24 h, read-out: INH.
Description: Inhibition of alpha-MSH-induced melanin production in mouse B16 cells at 5 uM after 24 hrs relative to control
Series [3] has as its target T2, Tyrosinase (Agaricus bisporus, UniProt O42713).
T2 sequence (O42713 whole entry): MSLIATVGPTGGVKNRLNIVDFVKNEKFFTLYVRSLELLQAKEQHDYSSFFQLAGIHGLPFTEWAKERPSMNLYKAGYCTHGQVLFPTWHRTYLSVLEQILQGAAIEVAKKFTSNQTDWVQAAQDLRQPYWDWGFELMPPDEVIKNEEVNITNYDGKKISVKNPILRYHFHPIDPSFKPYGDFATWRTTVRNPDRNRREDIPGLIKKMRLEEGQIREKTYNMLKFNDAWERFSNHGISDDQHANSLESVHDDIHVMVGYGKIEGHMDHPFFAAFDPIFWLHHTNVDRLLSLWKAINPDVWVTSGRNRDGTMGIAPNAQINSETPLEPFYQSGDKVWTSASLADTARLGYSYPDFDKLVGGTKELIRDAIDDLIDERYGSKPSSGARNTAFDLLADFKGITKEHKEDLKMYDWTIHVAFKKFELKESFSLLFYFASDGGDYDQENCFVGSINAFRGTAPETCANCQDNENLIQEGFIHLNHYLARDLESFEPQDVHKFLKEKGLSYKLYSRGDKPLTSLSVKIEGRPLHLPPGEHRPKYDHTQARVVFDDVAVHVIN
Description: Inhibition of mushroom tyrosinase at 1.25 uM by Lineweaver-Burk plot analysis

For series [4], the system named is B16. In words: cells. As to conditions: Mus musculus, B16, 24 h, read-out: INH. The source holds these as a separate data set.
Description: Inhibition of alpha-MSH-induced melanin production in mouse B16 cells at 1 uM after 24 hrs relative to control
Series [5] addresses T3, Tyrosinase (Agaricus bisporus) (UniProt O42713).
T3 sequence (whole entry): T2 sequence (O42713 whole entry)
In words: Inhibition of mushroom tyrosinase at 0.08 uM using L-tyrosine as a substrate.

Series [6] relates to B16. In words: Cytotoxicity against mouse B16 cells assessed as viable cells at 10 uM after 48 hrs by MTT assay relative to control. The series is classed as functional. The settings on record: B16, 48 h, read-out: Activity. (Tetrazolium assays rely on reduction of a dye to a coloured formazan, in cell work by metabolically active cells.)
The subject of series [7] is B16. Nature of the series: Cytotoxicity against mouse B16 cells assessed as viable cells at 5 uM after 48 hrs by MTT assay relative to control. The series is classed as functional. The settings on record: B16, 48 h, read-out: Activity.
For series [8], the system named is B16. In words: Cytotoxicity against mouse B16 cells assessed as viable cells at 0.2 uM after 48 hrs by MTT assay relative to control. The settings on record: B16, 48 h, read-out: Activity. The series is classed as functional.
For series [9], the target named is T2, Tyrosinase. This is another data set of the same source.
Description: Inhibition of mushroom tyrosinase using L-tyrosine as a substrate
Series [10] relates to B16. In words: Cytotoxicity against mouse B16 cells assessed as viable cells at 1 uM after 48 hrs by MTT assay relative to control. The settings on record: B16, 48 h, read-out: Activity. The series is classed as functional.
The target in series [11] is T3, Tyrosinase (Agaricus bisporus). Nature of the series: Inhibition of mushroom tyrosinase at 0.01 uM using L-tyrosine as a substrate.
The target of series [12] is T1, Tyrosinase (Mus musculus). Nature of the series: Inhibition of tyrosinase in alpha-MSH-induced mouse B16 cells at 10 uM. The format is cell-based.
For series [13], the system named is B16. Nature of the series: cells. The settings on record: Mus musculus, B16, 24 h, read-out: INH. This is another data set of the same source.
Description: Inhibition of alpha-MSH-induced melanin production in mouse B16 cells at 2.5 uM after 24 hrs relative to control
For series [14], the system named is B16. In words: Cytotoxicity against mouse B16 cells assessed as viable cells at 2.5 uM after 48 hrs by MTT assay relative to control. The series is classed as functional. As to conditions: B16, 48 h, read-out: Activity.
Series [15] deals with T1, Tyrosinase (Mus musculus). In words: Inhibition of tyrosinase in alpha-MSH-induced mouse B16 cells at 1 uM. The series is classed as cell-based.
Series [16] concerns the target T2, Tyrosinase. The source holds these as a separate data set.
Description: Inhibition of mushroom tyrosinase at 20 uM by Lineweaver-Burk plot analysis
Series [17] has as its system B16. In words: cells. The settings on record: Mus musculus, B16, 24 h, read-out: INH. The source holds these as a separate data set.
Description: Inhibition of alpha-MSH-induced melanin production in mouse B16 cells at 10 uM after 24 hrs relative to control
The subject of series [18] is B16. In words: cells. The settings on record: Mus musculus, B16, 24 h, read-out: INH. The source holds these as a separate data set.
Description: Inhibition of alpha-MSH-induced melanin production in mouse B16 cells at 0.2 uM after 24 hrs relative to control
Series [19] deals with T1, Tyrosinase (Mus musculus). In words: Inhibition of tyrosinase in alpha-MSH-induced mouse B16 cells at 2.5 uM. The format is cell-based.
Substrate in series [20]: Oc1ccc(-c2nc3ccccc3s2)cc1
In words: (§1) Activity of mushroom tyrosinase at 20 uM by Lineweaver-Burk plot analysis. As to conditions: Agaricus bisporus.

Substrate in series [21]: Oc1ccc(-c2nc3ccccc3s2)c(O)c1
The description is as §1. As to conditions: Agaricus bisporus.

Substrate in series [22]: Oc1ccc(-c2nc3ccccc3s2)cc1
As to conditions: Agaricus bisporus; 1.25 uM.

Substrate in series [23]: Oc1ccc(-c2nc3ccccc3s2)c(O)c1
As to conditions: Agaricus bisporus; 1.25 uM.

On to `Oc1ccc(-c2nc3ccccc3s2)cc1`, for which the inhibition in series [1] is 97.7%; in series [5], 46.2%; in series [11], 45.4%; in series [12], 95.2%; in [15], 133%; in [19] it was 98.8%. For the same molecule, in series [2], the inhibition at 5 µM amounted to 104%. For the same molecule, the Ki (in general, the dissociation constant of the complex between target and ligand, obtained from inhibition or displacement) came to 567 nM in series [3] and 1700 nM in series [16]. Also, the inhibition at 1 µM in [4] was determined as 188%. Moreover, the viability at 10 µM in series [6] is 95.8%. Further, the viability at 5 µM in [7] was 96.5%. For the same molecule, the viability at 0.2 µM in series [8] was found to be 99.7%. Further, in [9], half-maximal inhibition (IC50) required 1140 nM. For the same molecule, in series [10], the viability at 1 µM is 98.9%. Moreover, the inhibition at 2.5 µM in [13] worked out at 129%. In addition, the viability at 2.5 µM in series [14] was determined as 97.6%. The inhibition at 10 µM in series [17] turned out to be 97.1%. Further, the inhibition at 0.2 µM in [18] worked out at 201%.
Regarding `Oc1ccc(-c2nc3ccccc3s2)c(O)c1`, the inhibition was 108% in series [1]; 70.8% in [5]; 49.9% in series [11]; 99.6% in series [12]; 111% in series [19]. In addition, the inhibition at 5 µM in series [2] is 141%. The results for the Ki in series [3] and in [16] were 673 nM and 7700 nM, respectively. Moreover, in series [4], the inhibition at 1 µM stood at 217%. Besides, the viability at 10 µM in [6] was found to be 94.4%. Also, the viability at 5 µM in series [7] is 94.6%. In addition, in series [8], the viability at 0.2 µM came to 96.3%. The IC50 (usually the midpoint of a concentration-inhibition curve) in series [9] was 10 nM. For the same molecule, the viability at 1 µM in series [10] was found to be 94.9%. The inhibition at 2.5 µM in [13] amounted to 190%. Besides, the viability at 2.5 µM in [14] was 94.7%. In series [17], the inhibition at 10 µM was 131%. For the same molecule, the inhibition at 0.2 µM in series [18] amounted to 224%.

B1: Tyrosinase (Agaricus bisporus), O42713 (protein)
chain: T2 sequence (O42713 whole entry)
In the case of B1, the Km (commonly the substrate concentration at which the rate is half of its maximum) in series [20] is 5650 µM; in [21] it was 1460 µM; in series [22] it was 1020 µM; in series [23] it was 1160 µM.

(Values after ChEMBL document CHEMBL1759863, “Synthesis and biological activity of hydroxy substituted phenyl-benzo[d]thiazole analogues for antityrosinase activity in B16 cells” (Bioorg Med Chem Lett, 2011).)
